# Reference: patent US11306361B2, “Pathology prognosis method” (CENTRE NATIONAL DE LA RECHERCHE SCIENTIFIQUE, priority 2015, dated 2022)
# Numbered stars: 1 amine (or outer) side, 2 acyl side, 3 side chain; on linkers, the order of the positions; unused ones are H or OH. Bridge positions count the residues as written; N and C are the ends. Square brackets hold non-standard residues; d marks the D form. Peptide text beside a SMILES is read from it. I, II: the chains in the order shown. Actinocin(9to1) = Cc1c2oc3c(C)ccc(C(=O)[*:1])c3nc-2c(C(=O)[*:2])c(N)c1=O; NMeV = CN[C@H](C(=O)O)C(C)C; Sar = CNCC(=O)O
# Columns and labels:
# dopaminergic neurons = assay: 6-OHDA lesions, survival of mice; format: in vivo, mouse; conditions: FIG. 9
# Method: The mice were anesthetized with a mixture of ketamine (Imalgene 500, 50 mg/mL, Merial), 0.9% saline solution (weight/vol) and xylazine (Rompun 2%, […], Bayer) (2:2:1, i.p., 0.1 mL/30 g) and mounted on a stereotaxic apparatus. The 6-OHDA-HCl (Sigma) was dissolved in 0.02% ascorbic acid in a saline solution at a concentration of 3 μg of 6-OHDA/μL. Each mouse received two unilateral injections of 6-OHDA (2 μL/injection) in the right dorsal striatum, according to the following coordinates (in mm): anteroposterior +1, mediolateral −2.1, dorsal ventral −3.1 and anteroposterior +0.3, mediolateral −2.3, and dorsal ventral −3.1. The animals are then released and received a daily injection of glucose solution (50 mg/mL, subcutaneous).
# male germinal cells = assay: Methoxyacetic acid treatment, mouse testicles; format: in vivo
# Method: The mice were sacrificed 14 hours after treatment, for the postmortem analyses.
# (§1) The antibodies used are the following: anti-HA (HA.11 Clone 16B12, Eurogentec or Anti-HA EPITOPE TAG-600-401-384, Tebu-bio or Hemagglutinin (HA) Rabbit Polyclonal Antibody, Life Technologies), anti-Cyclin D1 (sc-450, Santa Cruz or MS-210-PABX (AB1), Fisher Scientific or RB-010-PABX (AB3), Fisher scientific), anti-RB total (sc-74562, Santa Cruz), anti-Phospho-RB (Ser780) (9307, Cell signaling), anti-Actin (ab6276, Abcam), anti-Tubulin (T9026, Sigma-Aldrich), anti-Ras (BD610002, BD Biosciences), anti-FLAG (F7425, Sigma-Aldrich), anti-cleaved PARP (ab32064, Abcam), anti-VASA (ab13840, Abcam), anti-Thyrosine Hydroxylase (MAB318, Merck Millipore). The secondary antibodies used are coupled with peroxidase (signaling), and the detection of the complexes is done using the enhanced chemiluminescence detection kit (Millipore).
# [1] = test system: MEF cells transformed with RAS-G12V/DNP53 and MMTV-ErbB2 tumor cells; assay: Measurement of cell death (apoptosis) in transformed tumor cells; format: cell-based, mouse; conditions: for apoptosis rates versus quantity of Cyclin D1: MEFs transformed with P53 negative dominant and RAS G12V, null, low or high Cyclin D1, FIG. 23
# Method: (§2) Cell death is induced by exposure to actinomycin D A9415, Sigma, for 6 h, 5-Fluoro uracil (Fluorouracil Winthrop, Sanofi-Aventis) for 24 h, or ethanol (20821.330, VWR) for 6 h and inhibited by exposure to Q-VD-Oph (SML0063, Sigma).
# (§3) The cells are washed twice in PBS 1×, unstuck with trypsin and reacted in a marking buffer (10 mM of Hepes pH=7.4, sodium chloride 150 mM, KCl 5 mM, MgCl2 1 mM, CaCl2 1.8 mM). Then the cells were marked with […]-fluorescein isothiocyanate (BD Biosciences) according to the manufacturer's instructions in 0.5 μg/mL of propidium iodide (PI; Sigma-Aldrich P-4170). After 15 min. of incubation in the dark, the cells are analyzed by flux cytometry. The living cells are Annexin V and PI double negatives and the apoptotic cells are positive for Annexin V and negative for PI.
# [2] = test system: MEFs transformed with the mouse T antigen; assay: Apoptosis and PARP cleavage in cell lines immortalized by the T antigen; format: cell-based; conditions: FIG. 15; for induced apoptosis as a function of Cyclin D1 level: T antigen immortalized cells, wild vs Ntag/Ntag vs −/−; for cleavage of the PARP: cells with low Cyclin D1 level
# Source text: as §1, §2, §3
# substantia nigra = assay: Methamphetamine model of dopaminergic neurons in mice
# Method: The methamphetamine was dissolved in a saline solution at 0.9% (weight/volume) sodium chloride, and injected at a rate of 10 mL/Kg. Several doses of methamphetamine (3 doses of 5 mg/kg at 3 h intervals) were injected intraperitoneally, the first dose being injected at noon. The control mice were treated with the saline solution alone. The mice were sacrificed 24 hours after treatment, for the postmortem analyses.
# The mouse organs were washed with PBS 1× at 37° C. and lysed in HTRF buffer (Tris 10 mM, EDTA 1 mM, 0.05% NP-40) using a cell homogenizer. After centrifugation at 16000 g for 5 min., the samples were normalized by adjusting the total quantity of DNA (nanodrop, Thermo Scientific) at 500 ng/mL.
# [3] = test system: RAS or ErbB2 cancer cells; assay: Western blot of cleaved PARP in tumor cells; format: cell-based, mouse; conditions: after treatment with 5-FU; limited by Cyclin D1; FIG. 27
# Source text: as §1
# [4] = mice expressing N-terminal tagged Cyclin D1 relative to wild mice, intraperitoneal injection
structure (smiles),measurement,setting,value
"NCCc1cc(O)c(O)cc1O [6-OHDA, 6-hydroxy dopamine]",survival of wild mice,"dopaminergic neurons; CCND1+/+ mice, intrastriatal injection",survive treatment
same,survival of mice expressing N-terminal tagged Cyclin D1,"dopaminergic neurons; mice expressing little Cyclin D1, intrastriatal injection",die several days after
"COCC(=O)O [MAA, methoxyacetic acid]",Cyclin D1 in testicles (HTRF),"male germinal cells; 14 hours after intraperitoneal injection at 150 mg/kg, FIG. 13",decrease
same,cleaved PARP rate in testicles,male germinal cells; [4],increase
same,germinal cell marker (Vasa) in testicles,male germinal cells; [4],massive loss
CC(C)[C@H](NC(=O)c1ccc2ccccc2n1)C(=O)N[C@@H](CC(=O)O)C(=O)COc1c(F)cccc1F [Q-VD-Oph],apoptosis induced by 5-FU or ethanol,"[1]; RAS and ErbB2 lines, Q-VD-Oph 20 μM, FIGS. 24 and 25",shunts the apoptosis
"Cc1c2oc3c(C)ccc(C(=O)N[C@@H]4C(=O)N[C@H](C(C)C)C(=O)N5CCC[C@H]5C(=O)N(C)CC(=O)N(C)[C@@H](C(C)C)C(=O)O[C@@H]4C)c3nc-2c(C(=O)N[C@@H]2C(=O)N[C@H](C(C)C)C(=O)N3CCC[C@H]3C(=O)N(C)CC(=O)N(C)[C@@H](C(C)C)C(=O)O[C@@H]2C)c(N)c1=O [actinomycin D] (I: T[dV]P[Sar][NMeV] / II: T[dV]P[Sar][NMeV]; ester I:1-I:C, II:1-II:C; linker I:N-II:N via Actinocin(9to1))",apoptosis rates versus quantity of Cyclin D1,[1],the quantity of Cyclin D1 correlates with the decrease in the apoptosis rates
same,induced apoptosis as a function of Cyclin D1 level,[2],increases with a low Cyclin D1 level
same,cleavage of the PARP,[2],strong cleavage of the PARP
CN[C@@H](C)Cc1ccccc1 [methamphetamine],quantity of Cyclin D1 in the substantia nigra (HTRF),"substantia nigra; CCND1Ntag/Ntag mice, 24 hours after intraperitoneal injection, FIG. 8",decreases
same,cerebral lesions,"substantia nigra; animals expressing little Cyclin D1, intraperitoneal 5 mg/kg",increase in cerebral lesions
CCO [ethanol],induced apoptosis as a function of Cyclin D1 level,[2],increases with a low Cyclin D1 level
same,cleavage of the PARP,[2],strong cleavage of the PARP
"O=c1[nH]cc(F)c(=O)[nH]1 [5-FU, 5-fluorouracil]",apoptosis rates versus quantity of Cyclin D1,[1],the quantity of Cyclin D1 correlates with the decrease in the apoptosis rates
same,levels of cleaved PARP,[3],increase
